Patent publication US7790896B2, “RNA-selective probes for live cell imaging of nuclear structure and function” (New York University, priority 2006, dated 2010)

test system: not listed separately; assay: Fluorescence spectrum in TE buffer of dyes selected from live cell imaging; format: physicochemical; details: dye 10 μM in TE buffer
Method: (§1) The fluorescence spectra data in the primary screening and selected dyes titration assay study was obtained by Gemini XS plate reader. RNA solution was prepared right before the assay experiments to avoid possible degradation and contamination. In the primary screening, 1 mg/mL RNA (type VI from torula yeast) buffer solution was used. Point scans were carried out first using five Ex/Em point sets ([…], 400/500, 450/550, 500/600, 550/650 nm). Spectra scans were then carried out for the selected dyes. Excitation wavelengths were set at 350 nm, 400 nm, 450 nm, 500 nm, and 550 nm and the emission wavelengths were scanned. RNA (16S- and 23S-ribosomal from E. coli) and DNA (salmon testes) titration experiments and quantum yield/extinction coefficient determination for the three best dyes were carried out by the plate reader as well. Excitation λmax obtained from F-2500 Hitachi Fluorophotometer was used. Absorbance wavelength was determined by SpectraMax Plus^384 absorbance plate reader. […] was chosen as standard and 480 nm was used as excitation wavelength in the scanning for quantum yield determination.

| SPECTRUM EM | SPECTRUM EX | SMILES |
| --- | --- | --- |
| 490 nm | 400 nm | COc1ccc2c(ccc(C=Cc3cccc(Br)c3)[n+]2C)c1 [Dye F40] |
| 590 nm | 450 nm | COc1ccc2c(ccc(/C=C/c3ccc(OC)c4ccccc34)[n+]2C)c1 [Dye F41] |
| 560 nm | 450 nm | COc1ccc2c(ccc(C=Cc3ccc4c(c3)OCO4)[n+]2C)c1 [Dye F43] |
| 490 nm | 400 nm | COc1ccc2c(ccc(/C=C/c3ccco3)[n+]2C)c1 [Dye F45] |
| 470 nm | 350 nm | COc1ccc2c(ccc(C=Cc3ccccc3Br)[n+]2C)c1 [Dye F47] |
| 480 nm | 400 nm | COc1ccc2c(ccc(/C=C/c3ccoc3)[n+]2C)c1 [Dye F48] |
| 490 nm | 400 nm | COc1ccc2c(ccc(C=Cc3cc(C(C)(C)C)ccc3O)[n+]2C)c1 [Dye F73] |
| 550 nm | 450 nm | COc1ccc2c(ccc(/C=C/C3CCCN3C)[n+]2C)c1 (centres unmarked) [Dye F74] |
| 440 nm | 350 nm | COc1ccc2c(ccc(/C=C/c3ccc(Br)s3)[n+]2C)c1 [Dye F77] |
| 490 nm | 400 nm | COc1ccc2c(ccc(/C=C/c3cccc(C(F)(F)F)c3)[n+]2C)c1 [Dye F82] |
| 460 nm | 350 nm | COc1ccc(Oc2cccc(C=Cc3ccc4cc(OC)ccc4[n+]3C)c2)cc1 [Dye F83] |
| 470 nm | 400 nm | COc1ccc2c(ccc(/C=C/c3c(C)cc(C)cc3C)[n+]2C)c1 [Dye F85] |
| 460 nm | 350 nm | COc1ccc2c(ccc(/C=C/C=C/c3ccccc3OC)[n+]2C)c1 [Dye F97] |
| 470 nm | 350 nm | CCCCCC(/C=C/c1ccc2cc(OC)ccc2[n+]1C)=C\c1ccccc1 [Dye F101] |
| 460 nm | 350 nm | CCOc1cccc(C=Cc2ccc3cc(OC)ccc3[n+]2C)c1O [Dye F104] |
| 650 nm | 500 nm | COc1ccc2c(ccc(/C=C/c3cc4c5c(c3O)CCCN5CCC4)[n+]2C)c1 [Dye F115] |
| 520 nm | 400 nm | COc1ccc2c(ccc(/C=C/c3ccccc3OCC(=O)O)[n+]2C)c1 [Dye F116] |

Continued, molecule first:

| SMILES | SPECTRUM EM | SPECTRUM EX |
| --- | --- | --- |
| COc1ccc(-c2ccc(/C=C/c3cccc[n+]3C)o2)cc1Cl [Dye B139] | 570 nm | 450 nm |
| C[n+]1ccc(C=Cc2cccc(F)c2F)c2ccccc21 [Dye D84] | 460 nm | 350 nm |
| Cc1ccc2ccccc2c1/C=C/c1cc[n+](C)c2ccccc12 [Dye D143] | 530 nm | 400 nm |
| COc1ccc(/C=C/c2ccc3ccccc3[n+]2C)cc1 [Dye E63] | 480 nm | 400 nm |
| C[n+]1c(C=Cc2cc(C(C)(C)C)ccc2O)ccc2ccccc21 [Dye E73] | 550 nm | 450 nm |
| C[n+]1c(/C=C/c2ccc(Br)s2)ccc2ccccc21 [Dye E77] | 470 nm | 350 nm |
| COc1ccc(Oc2cccc(/C=C/c3ccc4ccccc4[n+]3C)c2)cc1 [Dye E83] | 450 nm | 350 nm |
| C[n+]1c(/C=C/c2ccc(-c3cccs3)s2)ccc2ccccc21 [Dye E119] | 600 nm | 450 nm |

test system: RNA (Type VI from torula yeast); assay: In vitro solution assay (primary screening): fluorescent emission fold change upon binding to RNA; details: dye 10 μM, RNA 500 μg/mL in TE buffer
Method: as §1
The screening strategy used in this study is illustrated in FIG. 2. Both in vitro RNA assays and live cell imaging methods were utilized in the primary screening of the dye library. Selective binding of the dye to RNA in solution was the primary criterion for selecting lead compounds for subsequent bioimaging studies, Herein, the library dyes' fluorescent emission intensity fold change upon binding to RNA was measured in solution. Dyes showing five-fold or higher emission changes in the presence of RNA were selected (Table 3). Note the dyes listed are identified by the building blocks I and II from Table 2. For example, A4 is the product made by reacting compound A from the list of Building block I and compound 4 from the list of Building block II.

| Em(nm) | Ex(nm) | Fold (fluorescent emission fold changes to RNA) | SMILES |
| --- | --- | --- | --- |
| 560 nm | 450 nm | 62 | COc1ccc2c(ccc(/C=C/c3c[nH]c4ccccc34)[n+]2C)c1 [Dye F4] |
| 610 nm | 500 nm | 52 | COc1ccc2c(ccc(C=Cc3cc(OC)c(OC)cc3OC)[n+]2C)c1.[I-] [Dye F8] |
| 620 nm | 500 nm | 86 | COc1ccc2c(ccc(C=Cc3ccc(N(C)CCC#N)cc3)[n+]2C)c1 [Dye F9] |
| 630 nm | 500 nm | 38 | COc1ccc2c(ccc(C=Cc3ccc(N(C)CCO)cc3)[n+]2C)c1 [Dye F10] |
| 640 nm | 500 nm | 20 | CCN(CC)c1ccc(C=Cc2ccc3cc(OC)ccc3[n+]2C)cc1 [Dye F92] |
| 610 nm | 500 nm | 27 | COc1ccc2c(ccc(/C=C/c3cc4ccccc4n3C)[n+]2C)c1 [Dye F108] |
| 640 nm | 500 nm | 14 | CCN(CC)c1ccc(C=Cc2ccc3cc(OC)ccc3[n+]2C)c(C#N)c1 [Dye F132] |

More lines, now with the values behind:

| SMILES | Em(nm) | Ex(nm) | Fold (fluorescent emission fold changes to RNA) |
| --- | --- | --- | --- |
| C[n+]1ccc(/C=C/c2c[nH]c3ccccc23)cc1 [Dye A4] | 540 nm | 450 nm | 11 |
| COc1cc(OC)c(OC)cc1/C=C/c1cc[n+](C)cc1 [Dye A8] | 580 nm | 450 nm | 37 |
| CN(CCC#N)c1ccc(/C=C/c2cc[n+](C)cc2)cc1 [Dye A9] | 600 nm | 500 nm | 21 |
| CN(CCO)c1ccc(/C=C/c2cc[n+](C)cc2)cc1 [Dye A10] | 610 nm | 500 nm | 23 |
| CN(C)c1ccc(C=Cc2cc[n+](C)cc2)cc1 [Dye A22] | 610 nm | 500 nm | 28 |
| CN(C)c1ccc(C=Cc2cc[n+](C)cc2)c2ccccc12 [Dye A24] | 660 nm | 500 nm | 103 |
| C[n+]1ccc(C=Cc2c(O)ccc3ccccc23)cc1 [Dye A42] | 560 nm | 450 nm | 10 |
| Cn1c(/C=C/c2cc[n+](C)cc2)cc2ccccc21 [Dye A108] | 590 nm | 450 nm | 8 |
| Cc1cc(C=Cc2cc[n+](C)cc2)c(C)n1-c1cccc(C(F)(F)F)c1 [Dye A121] | 540 nm | 450 nm | 28 |
| CCN(CC)c1ccc(C=Cc2cc[n+](C)cc2)c(C#N)c1 [Dye A132] | 610 nm | 500 nm | 17 |
| COc1cc(OC)c(C=Cc2cc[n+](C)cc2)c(OC)c1 [Dye A144] | 530 nm | 450 nm | 26 |
| COc1cc(/C=C/c2cc[n+](C)cc2)c(OCc2ccccc2)cc1OC [Dye A156] | 580 nm | 450 nm | 42 |
| CCN(CC)c1ccc(C=Cc2cccc[n+]2C)cc1 [Dye B92] | 600 nm | 500 nm | 28 |
| CCN(CC)c1ccc(/C=C/c2cccc[n+]2C)c(C#N)c1 [Dye B132] | 590 nm | 500 nm | 28 |
| COc1cc(/C=C/c2cccc[n+]2C)c(OCc2ccccc2)cc1OC [Dye B156] | 560 nm | 450 nm | 54 |
| COc1cc(OC)c(OC)cc1C=Cc1cccc(C)[n+]1C [Dye C8] | 570 nm | 450 nm | 9 |
| Cc1cccc(/C=C/c2ccc(N(C)CCC#N)cc2)[n+]1C [Dye C9] | 610 nm | 500 nm | 9 |
| Cc1cccc(/C=C/c2ccc(N(C)C)cc2)[n+]1C [Dye C22] | 630 nm | 500 nm | 6 |
| CCN(CC)c1ccc(/C=C/c2cccc(C)[n+]2C)cc1 [Dye C92] | 630 nm | 500 nm | 15 |
| Cc1cccc(C=Cc2cc3ccccc3n2C)[n+]1C [Dye C108] | 580 nm | 450 nm | 8 |
| CCn1c2ccccc2c2cc(C=Cc3cc[n+](C)c4ccccc34)ccc21 [Dye D107] | 620 nm | 500 nm | 13 |
| Cn1c(/C=C/c2cc[n+](C)c3ccccc23)cc2ccccc21 [Dye D108] | 630 nm | 500 nm | 21 |
| C[n+]1c(C=Cc2ccc3c(c2)OCO3)ccc2ccccc21 [Dye E43] | 560 nm | 450 nm | 10 |
| Cn1c(C=Cc2ccc3ccccc3[n+]2C)cc2ccccc21 [Dye E108] | 620 nm | 500 nm | 21 |
| C[n+]1c(C=Cc2cc(Br)c(Cl)c(Br)c2)ccc2ccccc21 [Dye E111] | 620 nm | 500 nm | 17 |
